Data as given in PMC9505218, “Nitrostilbenes: Synthesis and Biological Evaluation as Potential Anti-Influenza Virus Agents” (Pharmaceuticals, 2022).
Several values for one entry are separate records, joined by “and”; a condition that tells them apart may be missing. Equal values may be shown once. Entries after “also recorded” stand apart in the source; their conditions may differ. Read-outs that look alike come from different tables or passages of the source.

What was measured:
MTT cytotoxicity assay = assay type: cell-based, human; conditions: human
Description: (§1) The cytotoxicity of RSV derivatives was evaluated on A549 cells using MTT (3-(4,5-dimethylthiazol-2-yl)-2,5-diphenyl tetrazolium bromide) reagent (Sigma-Aldrich, St. Louis, MO, USA). In this assay, cells were seeded in a 96-well plate at a concentration of 2 × 10^4/well in DMEM without phenol red and supplemented with 10% FBS. The compounds were dissolved in DMSO and added to the cell monolayer. After 24 h, 10 µL of the 5 mg/mL solution of MTT was added to the cell culture, which was incubated at 37 °C for 3 h. Then, the medium was solubilized in absolute isopropanol containing 0.1 N HCl. The absorbance of converted dye was measured in an ELISA plate reader at a wavelength of 590 nm. The results were used to calculate the 50% cytotoxic concentration (CC50), defined as the concentration of RSV derivatives required to reduce cell viability by 50% compared with the solvent-treated (DMSO) control condition.

[1] = system: influenza A Puerto Rico 8/34/H1N1 (PR8) virus; test: microbe, parasite or virus in culture; assay type: cell-based; conditions: for IC50: Influenza A virus, A549, 24 h, read-out: IC50 (concentration causing 50% reduction in viral infection); for Selectivity Index (SI): ratio CC50/IC50, A549
[2] = system: influenza A PR/8/H1N1 virus; assay type: cell-based; conditions: supernatants from A549 treated with 10-30 μg/mL, 24 h
[3] = system: influenza A PR/8/H1N1 virus; assay type: cell-based
[4] = system: influenza A PR/8/H1N1 virus; assay type: cell-based; remark: listed apart in the source
[5] = system: GSH-mediated antioxidant response; test: Glutathione assay in infected A549 cells; assay type: cell-based, human; conditions: A549, 24 h PR8 infection and treatment
Description: The total glutathione was analyzed by the Glutathione Assay Kit (ADI-900-160 Enzo) following the manufacturer’s instructions. For GSSG quantification, the samples were deproteinized with metaphosphoric acid, and an aliquot was incubated with 2-vinylpyridine to derivatize the reduced form, GSH [46]. The GSH levels were obtained by the subtraction of GSSG from the total glutathione and then normalized to the protein content of each sample determined by the Bradford method (Bio-Rad, Hercules, CA, USA).

A549 cells = test: MTT cytotoxicity assay; assay type: cell-based, human
Description: as §1

GSH level = system: GSH level; set-up: method as in PMID 15838800; conditions: infected conditions; cited from earlier work
[6] = A549, MTT, 24 h, read-out: CC50 (concentration required to reduce cell viability by 50%)

Structure (SMILES)	CC50 at 24 h (MTT cytotoxicity assay)	IC50 [1]	Selectivity Index (SI) [1]	rescue of GSH-mediated antioxidant response (total glutathione, GSH/GSSG) [5]	also measured
Oc1ccc(/C=C/c2ccccc2)cc1Cl [Compound 1]	87.3 µg/mL and 378 µM	20.7 µg/mL and 89 µM	4.2		
Oc1ccc(/C=C/c2ccc(Cl)cc2Cl)cc1Cl [Compound 2]	39.5 µg/mL and 131 µM	13.5 µg/mL and 45 µM	2.9		
Oc1ccc(/C=C/c2ccc(Cl)cc2Cl)cc1 [Compound 3]	30.3 µg/mL and 114 µM	12.2 µg/mL and 46 µM	2.4		
Oc1ccc(/C=C/c2ccc(C(F)(F)F)cc2)cc1Cl [Compound 4]	38.8 µg/mL and 129 µM	14.6 µg/mL and 48 µM	2.6		
Oc1ccc(/C=C/c2ccc(C(F)(F)F)cc2)cc1 [Compound 5]	59 µg/mL and 223 µM	23.4 µg/mL and 88 µM	2.5		
O=[N+]([O-])c1ccc(/C=C/c2ccc(O)c(Cl)c2)cc1 [Compound 6]		17.1 µg/mL and 62 µM	12.4	do not rescue	HA protein expression on MDCK cells infected with supernatants [2]: markedly reduced; viral titer / viral particle production (HAU) [3]: markedly decreased; also recorded: drastically reduced; early viral nucleoprotein (NP) expression [4]: decrease; CC50 at 24 h (MTT cytotoxicity assay; [6]): 212 µg/mL and 770 µM; inhibition of HA expression [1]: 75%
O=[N+]([O-])c1ccc(/C=C/c2ccc(O)cc2)cc1 [Compound 7]		19.5 µg/mL and 80 µM	5.9	do not rescue	HA protein expression on MDCK cells infected with supernatants [2]: markedly reduced; viral titer / viral particle production (HAU) [3]: markedly decreased; also recorded: drastically reduced; early viral nucleoprotein (NP) expression [4]: decrease; CC50 at 24 h (MTT cytotoxicity assay; [6]): 116 µg/mL and 481 µM
N#Cc1ccc(/C=C/c2ccc(O)cc2)cc1 [Compound 8]	92 µg/mL and 415 µM	45.1 µg/mL and 203 µM	2		
COc1ccc(/C=C/c2ccc(O)cc2)cc1 [Compound 9]	106 µg/mL and 466 µM	31.7 µg/mL and 104 µM	3.3		
O=[N+]([O-])c1ccc(/C=C/c2ccc(O)c(Br)c2)cc1 [Compound 12, (E)-2-Bromo-4-(4-Nitrostyryl)Phenol]				do not rescue	melting point: 200.2 to 200.4 °C; cytotoxicity on the A549 cell monolayer (A549 cells): did not show cytotoxicity
O=[N+]([O-])c1cc(/C=C/c2ccc(Cl)cc2)ccc1O [Compound 13, (E)-4-(4-Chlorostyryl)-2-Nitrophenol]				do not rescue	melting point: 176.5 to 177.9 °C; early viral nucleoprotein (NP) expression [4]: decrease; cytotoxicity on the A549 cell monolayer (A549 cells): did not show cytotoxicity
Oc1ccc(C=Cc2cc(O)cc(O)c2)cc1 [RSV, 3,4′,5-trihydroxystilbene]					rescue of GSH level (GSH level): did not rescue
